Tests used:
S1P1 receptor = molecular target: T1, S1P1 receptor (Homo sapiens, UniProt P21453); test: HTRF assay for direct cAMP measurement; assay type: cell-based; conditions: recombinant CHO-K1 cells stably transfected with S1P1; agonist detected as decrease of cAMP concentration
T1 construct: expressed in transfected cells; host or cells: CHO-K1 (ATCC CCL-61), stably transfected
Text: Compounds were screened for agonists of the S1P1 receptor (e.g., human S1P1 receptor) using the HTRF® assay for direct cAMP measurement (Gabriel et al., Assay and Drug Development Technologies, 1:291-303, 2003) and recombinant CHO-K1 cells stably transfected with S1P1. CHO-K1 cells were obtained from ATCC® (Manassas, Va.; Catalog #CCL-61). An agonist of the S1P1 receptor was detected in the HTRF® assay for direct cAMP measurement as a compound which decreased cAMP concentration. HTRF® assay also was used to determine EC50 values for S1P1 receptor agonists.
HTRF® assay kit was purchased from Cisbio-US, Inc. (Bedford, Mass.; Catalog #62AM4PEC). […] The specific signal (i.e., fluorescence resonance energy transfer, FRET) is inversely proportional to the concentration of unlabeled cAMP in the standard or sample.
The fluorescence ratio (665 nm/620 nm) of the standards (0.17 to 712 nM cAMP) included in the assay was calculated and used to generate a cAMP standard curve according to the kit manufacturer's instructions. The fluorescence ratio of the samples (test compound or compound buffer) was calculated and used to deduce respective cAMP concentrations by reference to the cAMP standard curve. […]
HTRF® readout was accomplished using a PHERAstar (BMG LABTECH Inc., Durham, N.C.) or EnVision™ (PerkinElmer, Fremont Calif.) microplate reader.

Male Sprague-Dawley rats = test: Rat Peripheral Lymphocyte Lowering (PLL) assay; assay type: in vivo; conditions: 1.0 mg/kg oral dose in 0.5% methyl cellulose in water; 5 h post-dose; vs vehicle; FIG. 16
Protocol: Male Sprague-Dawley rats (Charles River Laboratories, Hollister, Calif.) were housed and maintained in humidity (40 to 60%) and temperature (68 to 72° F.) controlled facility on a 12 h: 12 h light/dark cycle (lights on at 6:30 am) with free access to food (Harlan Teklad, Orange, Calif., Rodent Diet 8604) and water. Rats were allowed (approximately) one week of habituation to the animal facility before testing.
Rats were given a 1.0 mg/kg oral dose of (R)-2-(9-chloro-7-(4-isopropoxy-3-(trifluoromethyl)benzyloxy)-2,3-dihydro-1H-pyrrolo[1,2-a]indol-1-yl)acetic acid or dosing vehicle (0.5% methyl cellulose in water) in a total volume of 1 mL/kg. Peripheral blood samples were collected at 5 h post-dose. Blood was collected via indwelling catheter. A complete cell count (CBC), including lymphocyte count, was obtained using a CELL-DYN® 3700 (Abbott Laboratories, Abbott Park, Ill.) instrument. Results are presented in FIG. 16, in which peripheral blood lymphocyte (PBL) count is shown for the 5 hour group.

[1] = Dynamic moisture sorption (DMS); assay type: physicochemical; conditions: crystalline form
Protocol: Samples are prepared for dynamic moisture-sorption analysis by placing ˜5 mg to ˜20 mg of compound in a tarred sample holder on the VTI balance. The instrument is a dynamic moisture-sorption analyzer, VTI Corporation, SGA-100. A drying step is run at 40° C. and ˜1% RH for 1 h. The isotherm temperature is 25° C. A % weight change over 10 min (5 weight readings) of dm/dt=0.010 or 2 h, whichever occurs first, is required before continuing to the next step. The water content of the sample equilibrated as described above was determined from 30% RH to 90% RH and then back down to 10% RH.

T1 sequence (P21453 whole entry): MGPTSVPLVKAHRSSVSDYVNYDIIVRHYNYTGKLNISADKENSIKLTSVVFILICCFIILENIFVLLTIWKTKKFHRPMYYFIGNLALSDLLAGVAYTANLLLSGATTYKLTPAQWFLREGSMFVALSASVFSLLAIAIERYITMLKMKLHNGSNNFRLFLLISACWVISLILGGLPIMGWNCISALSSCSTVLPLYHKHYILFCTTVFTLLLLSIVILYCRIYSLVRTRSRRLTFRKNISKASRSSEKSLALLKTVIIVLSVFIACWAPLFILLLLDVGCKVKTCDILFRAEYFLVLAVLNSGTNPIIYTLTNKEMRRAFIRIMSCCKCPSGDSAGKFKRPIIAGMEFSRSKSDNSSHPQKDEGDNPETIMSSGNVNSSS

CC(C)Oc1ccc(COc2ccc3c(c2)c(Cl)c2n3CC[C@@H]2CC(=O)O)cc1C(F)(F)F [(R)-2-(9-chloro-7-(4-isopropoxy-3-(trifluoromethyl)benzyloxy)-2,3-dihydro-1H-pyrrolo[1,2-a]indol-1-yl)acetic acid]
EC50 (S1P1 receptor): 0.028 nM
peripheral blood lymphocyte (PBL) lowering (lymphopenia) (Male Sprague-Dawley rats): exhibited activity for inducing PBL lowering (lymphopenia)
hygroscopicity (DMS) ([1]; 10% RH to 90% RH at 25° C.): non-hygroscopic
DMS weight gain over the full range of % RH tested ([1]; 10% RH to 90% RH at 25° C., listed as Crystalline form of (R)-2-(9-chloro-7-(4-isopropoxy-3-(trifluoromethyl)benzyloxy))): FIG. 3: gains less than about 0.1% weight over the full range
DMS weight gain over the full range of % RH tested ([1]; 10% RH to 90% RH at 25° C., listed as crystalline form of (R)-2-(9-chloro-7-(4-isopropoxy-3-(trifluoromethyl)benzyloxy))): less than 0.1 % weight
DMS maximum weight gain ([1]; adsorption phase of the DMS cycle at about 70% RH): about 0.06%

Reference: US20150284399A1, “PROCESSES FOR THE PREPARATION OF S1P1 RECEPTOR MODULATORS AND CRYSTALLINE FORMS THEREOF” (Arena Pharmaceuticals, Inc., priority 2010, published 2015)
